Data as given in patent US8546579B2, “Bicycloheteroaryl compounds as P2X7 modulators and uses thereof” (Evotec (US) Inc., priority 2006, dated 2013).
Like-named read-outs stand apart in the source and are kept apart here. Each block holds one compound with its values, some of them ahead of it.

Biological target: T1, P2X7 receptor (Homo sapiens, UniProt Q99572)
T1 construct: host or cells: THP-1 cells differentiated with LPS and IFN-γ
T1 sequence (Q99572 1-595): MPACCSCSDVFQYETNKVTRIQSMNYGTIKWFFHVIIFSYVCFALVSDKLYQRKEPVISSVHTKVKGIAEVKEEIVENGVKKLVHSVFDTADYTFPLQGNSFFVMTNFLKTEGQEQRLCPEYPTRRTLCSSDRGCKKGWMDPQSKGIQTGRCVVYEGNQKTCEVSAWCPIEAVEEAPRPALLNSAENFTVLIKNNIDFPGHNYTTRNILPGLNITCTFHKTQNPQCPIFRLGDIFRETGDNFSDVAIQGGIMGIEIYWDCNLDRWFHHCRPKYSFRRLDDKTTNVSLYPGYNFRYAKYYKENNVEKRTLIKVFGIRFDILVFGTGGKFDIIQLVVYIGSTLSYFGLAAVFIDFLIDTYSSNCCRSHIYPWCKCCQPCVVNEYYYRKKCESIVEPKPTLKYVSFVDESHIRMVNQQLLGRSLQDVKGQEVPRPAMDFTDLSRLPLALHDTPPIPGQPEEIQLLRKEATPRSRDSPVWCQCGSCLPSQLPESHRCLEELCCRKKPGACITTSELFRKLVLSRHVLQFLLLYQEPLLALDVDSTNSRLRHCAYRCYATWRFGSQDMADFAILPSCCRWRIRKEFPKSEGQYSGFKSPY
Experiment: IL-1β release assay in differentiated THP-1 cells stimulated with BzATP (Example 9)
Format: cell-based
Design: inhibition: dose or concentration left out as unconfirmed
Settings: for inhibition: THP-1, read-out: IL-1β % Inhib.; for inhibition at 0.3 µM: 0.3 μM compound, read-out: IL-1β % Inhib. @ 0.3 μM; for inhibition at 0.3 µM / inhibition at 0.1 µM: differentiated THP-1 cells, BzATP 250 uM; for IC50: THP-1 cells, BzATP-stimulated IL-1β release, four parameter logistic fit; for inhibition at 0.1 µM: 0.1 μM compound
How it was run: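 THP-1 cells differentiated 16 h with LPS and IFN-γ (100 ng/mL each), re-primed 2 h with LPS, then compound-pretreated 30 min before 250 uM BzATP for 45 min. Supernatant IL-1β quantified by ELISA; background-adjusted percent inhibition fitted to four-parameter logistic for IC50.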

[1] = '*' class symbols, read-out: IL-1β % Inhib. (asterisk classes, 0.1 μM)
[2] = "*" class symbols, read-out: IL-1β % Inhib. ("*" symbols: at 0.1 μM)

inhibition: 0 to 25%
Structure (SMILES): Cc1ccc(C)c(C(=O)Nc2cccc3c(=O)n(CC4CCN(C)CC4)ccc23)c1 [Compound 1463]

inhibition at 0.3 µM ('+' class symbols): 0 to 25%
Structure (SMILES): COCCn1ccc2c(NC(=O)Cc3cc(C)ccc3C)cccc2c1=O [Compound 1066]

inhibition: 0 to 25%
Structure (SMILES): CCOc1ccc(CC(=O)Nc2cccc3c(=O)n(Cc4cccnc4)ccc23)cc1 [Compound 1450]

inhibition at 0.3 µM ("+" class symbols): 26 to 50% | IC50: 0.417 µM
Structure (SMILES): CC(=O)OCCn1ccc2c(NC(=O)Cc3ccc(C(F)(F)F)cc3C(F)(F)F)cccc2c1=O [Compound 1617]

inhibition at 0.1 µM [1]: 0 to 25%
Structure (SMILES): CCOc1ccc(C(=O)Nc2cccc3c(=O)n(CCN(C)C)ccc23)cc1 [Compound 1146]

inhibition: 0 to 25%
Structure (SMILES): COCCn1ccc2c(NC(=O)c3ccc(C)cc3C)cccc2c1=O [Compound 1426]

inhibition: 0 to 25%
Structure (SMILES): Cc1cc(C)c(CC(=O)Nc2cccc3c(=O)n(Cc4ccc(OC(F)(F)F)cc4)ccc23)c(C)c1 [Compound 1553]

inhibition at 0.3 µM (symbols + to ++++): 51 to 75% | IC50: 0.121 µM
Structure (SMILES): CC(=O)OCCn1ccc2c(NC(=O)Cc3cc(C(F)(F)F)cc(C(F)(F)F)c3)cccc2c1=O [Compound 1378]

inhibition at 0.3 µM (symbols + to ++++): 0 to 25%
Structure (SMILES): CCOc1ccccc1CC(=O)Nc1cccc2c(=O)n(CCN3CCOCC3)ccc12 [Compound 1233]

inhibition: 0 to 25%
Structure (SMILES): Cc1ccc(C)c(C(=O)Nc2cccc3c(=O)n(CC(C)(C)C)ccc23)c1 [Compound 1414]

inhibition at 0.1 µM [1]: 0 to 25%
Structure (SMILES): CN(C)CCn1ccc2c(NC(=O)c3ccc(-c4ccccc4)o3)cccc2c1=O [Compound 1035]

inhibition at 0.3 µM (symbols + to ++++): 0 to 25%
Structure (SMILES): Cc1ccc(Cl)cc1C(=O)Nc1cccc2c(=O)n(CCN3CCOCC3)ccc12 [Compound 1236]

inhibition at 0.3 µM (symbols + to ++++): 26 to 50% | IC50: 0.602 µM
Structure (SMILES): CC(=O)OCCn1ccc2c(NC(=O)Cc3cc(C(F)(F)F)ccc3C(F)(F)F)cccc2c1=O [Compound 1382]

inhibition at 0.3 µM (symbols + to ++++): 0 to 25%
Structure (SMILES): COc1ccc(CC(=O)Nc2cccc3c(=O)n(Cc4cccnc4)ccc23)cc1C [Compound 1367]

inhibition at 0.1 µM [2]: 26 to 50%
Structure (SMILES): CC(c1ccccn1)n1ccc2c(NC(=O)[C@H](C)c3ccc(Cl)c(Cl)c3)cccc2c1=O (stereo partly drawn) [Compound 1636]

inhibition at 0.3 µM ('+' class symbols): 0 to 25%
Structure (SMILES): COCCn1ccc2c(NC(=O)c3ccc(OC)cc3C)cccc2c1=O [Compound 1060]

inhibition at 0.3 µM (symbols + to ++++): 0 to 25%
Structure (SMILES): COCCn1ccc2c(NC(=O)c3ccc4c(c3)OCCCO4)cccc2c1=O [Compound 1328]

inhibition at 0.3 µM ('+' class symbols): 0 to 25%
Structure (SMILES): CN(C)CCn1ccc2c(NC(=O)c3cccc4ccccc34)cccc2c1=O [Compound 1151]

inhibition at 0.3 µM ('+' class symbols): 26 to 50% | IC50: 0.367 µM
Structure (SMILES): CN(C)CCn1ccc2c(NC(=O)C(Cl)c3ccccc3)cccc2c1=O (stereo not drawn) [Compound 1017]

inhibition at 0.3 µM (symbols + to ++++): ≥ 76% | IC50: 0.0721 µM
Structure (SMILES): O=C(CC1CCCCCC1)Nc1cccc2c(=O)n(CC3CCOCC3)ccc12 [Compound 1373, 2-Cycloheptyl-N-[1-oxo-2-(tetrahydro-pyran-4-ylmethyl)-1,2-dihydro-isoquinolin-5-yl]-acetamide]

inhibition at 0.3 µM (symbols + to ++++): ≥ 76% | IC50: 0.0778 µM
Structure (SMILES): COCCn1ccc2c(NC(=O)CC3(O)CC(C)(C)CC(C)(C)C3)cccc2c1=O [Compound 1393]

inhibition at 0.1 µM (symbols * to ****, read-out: IL-1β % Inhib. (asterisk symbols: at 0.1 μM)): 0 to 25%
Structure (SMILES): CCOc1ccc(C(=O)Nc2cccc3c(=O)n(CCN(C)C)ccc23)c(O)c1 [Compound 1397]

inhibition at 0.3 µM (symbols + to ++++): 0 to 25%
Structure (SMILES): Cc1cccc(CC(=O)Nc2cccc3c(=O)n(CC(C)(C)C)ccc23)c1 [Compound 1259]

inhibition at 0.3 µM ('+' class symbols): 0 to 25%
Structure (SMILES): COc1ccc(C(=O)Nc2cccc3c(=O)n(CCN4CCOCC4)ccc23)cc1Cl [Compound 1043]

inhibition: 0 to 25%
Structure (SMILES): CCOc1ccc(C(=O)Nc2cccc3c(=O)n(CCN4CCOCC4)ccc23)c(O)c1 [Compound 1403]

inhibition at 0.3 µM ('+' class symbols): 0 to 25%
Structure (SMILES): CN(C)CCn1ccc2c(NC(=O)c3ccc4ccccc4c3)cccc2c1=O [Compound 1153]

inhibition: 0 to 25%
Structure (SMILES): COc1ccc(C(=O)Nc2cccc3c(=O)n(CCN(C)C)ccc23)cc1Cl [Compound 1402]

inhibition at 0.3 µM (symbols + to ++++): 0 to 25%
Structure (SMILES): O=C(Nc1cccc2c(=O)n(Cc3cccnc3)ccc12)[C@@]12C[C@@H]3C[C@@H](C[C@@H]1C3)C2 [Compound 1362]

inhibition: 0 to 25%
Structure (SMILES): COc1ccc(C(=O)Nc2cccc3c(=O)n(CC4CCN(C)CC4)ccc23)c(C)c1 [Compound 1456]

inhibition at 0.3 µM ('+' class symbols): 0 to 25% | IC50: > 1 µM
Structure (SMILES): CN(C)CCn1ccc2c(NC(=O)CCc3ccc(S(C)(=O)=O)cc3)cccc2c1=O [Compound 1009]

inhibition at 0.3 µM ('+' class symbols): ≥ 76% | IC50: 0.108 µM
Structure (SMILES): CN(C)CCn1ccc2c(NC(=O)Cc3ccc(Cl)cc3)cccc2c1=O [Compound 1004]

inhibition at 0.3 µM ('+' class symbols): 0 to 25%
Structure (SMILES): CCOc1ccccc1CC(=O)Nc1cccc2c(=O)n(CC3CCOCC3)ccc12 [Compound 1126]

inhibition at 0.3 µM ('+' class symbols): ≥ 76% | IC50: 0.338 µM
Structure (SMILES): CC(=O)OCCn1ccc2c(NC(=O)Cc3ccc(C(F)(F)F)cc3)cccc2c1=O [Compound 1016]

inhibition at 0.3 µM ('+' class symbols): 0 to 25%
Structure (SMILES): Cc1cccc(CCC(=O)Nc2cccc3c(=O)n(CCN(C)C)ccc23)c1 [Compound 1181]

inhibition: 0 to 25%
Structure (SMILES): CN1CCC(Cn2ccc3c(NC(=O)c4cccc5ccccc45)cccc3c2=O)CC1 [Compound 1469]

inhibition at 0.3 µM ('+' class symbols): 0 to 25%
Structure (SMILES): Cc1ccc(C)c(CC(=O)Nc2cccc3c(=O)n(CC4CCOCC4)ccc23)c1 [Compound 1028]

inhibition: 0 to 25%
Structure (SMILES): O=C(Nc1cccc2c(=O)n(CCCN3CCCC3=O)ccc12)c1cc(Cl)cc(Cl)c1 [Compound 1511]

inhibition: 0 to 25%
Structure (SMILES): COCCn1ccc2c(NC(=O)CCc3ccccc3OC)cccc2c1=O [Compound 1432]

inhibition: 26 to 50%
Structure (SMILES): Cc1cc(C)cc(CC(=O)Nc2cccc3c(=O)n(CC4CCN(C)CC4)ccc23)c1 [Compound 1482]

inhibition at 0.3 µM (symbols + to ++++): 0 to 25%
Structure (SMILES): COCCn1ccc2c(NC(=O)Cc3cc(C)cc(C)c3)cccc2c1=O [Compound 1331]

inhibition at 0.3 µM (symbols + to ++++): 0 to 25%
Structure (SMILES): Cc1ccc(CCC(=O)Nc2cccc3c(=O)n(CCN4CCOCC4)ccc23)c(C)c1 [Compound 1241]

inhibition at 0.3 µM (symbols + to ++++): 0 to 25%
Structure (SMILES): O=C(Cc1ccccc1Cl)Nc1cccc2c(=O)n(CCN3CCOCC3)ccc12 [Compound 1205]

inhibition at 0.3 µM (symbols + to ++++): ≥ 76% | IC50: 0.0415 µM
Structure (SMILES): CC(=O)OCCn1ccc2c(NC(=O)CC3CCCCC3)cccc2c1=O [Compound 1379]

inhibition at 0.3 µM ("+" class symbols): ≥ 76% | IC50: 0.00686 µM
Structure (SMILES): CC(C)(C)OC(=O)N1CCC[C@H]1Cn1ccc2c(NC(=O)Cc3ccc(Cl)c(C(F)(F)F)c3)cccc2c1=O [Compound 1621]

inhibition: 0 to 25%
Structure (SMILES): Cc1ccccc1CCC(=O)Nc1cccc2c(=O)n(CC3CCN(C)CC3)ccc12 [Compound 1457]

inhibition: 0 to 25%
Structure (SMILES): CN1CCC(Cn2ccc3c(NC(=O)c4ccc5c(c4)OCCCO5)cccc3c2=O)CC1 [Compound 1480]

inhibition at 0.3 µM ('+' class symbols): 26 to 50%
Structure (SMILES): COCCn1ccc2c(NC(=O)c3ccc(OC)c(Cl)c3)cccc2c1=O [Compound 1067]

inhibition at 0.3 µM (symbols + to ++++): 0 to 25%
Structure (SMILES): Cc1cc(Cl)ccc1C(=O)Nc1cccc2c(=O)n(CC(C)(C)C)ccc12 [Compound 1269]

inhibition: 0 to 25%
Structure (SMILES): Cc1ccc(C(=O)Nc2cccc3c(=O)n(Cc4ccc(OC(F)(F)F)cc4)ccc23)c(C)c1 [Compound 1564]

inhibition at 0.3 µM ('+' class symbols): 0 to 25%
Structure (SMILES): CC(C)(C)Cn1ccc2c(NC(=O)CCc3ccc4c(c3)OCO4)cccc2c1=O [Compound 1055]

inhibition at 0.3 µM ('+' class symbols): 0 to 25%
Structure (SMILES): Cc1ccc(C)c(C(=O)Nc2cccc3c(=O)n(CCN(C)C)ccc23)c1 [Compound 1142]

inhibition at 0.3 µM (symbols + to ++++): 0 to 25%
Structure (SMILES): Cn1ccc2c(NC(=O)CC3CC4CC[C@H]3C4)cccc2c1=O (stereo partly drawn) [Compound 1302]

inhibition at 0.1 µM [2]: 0 to 25%
Structure (SMILES): O=C(Nc1cccc2c(=O)n(Cc3ccc(OC(F)(F)F)cc3)ccc12)C1C[C@@H]2CC[C@H]1C2 (stereo partly drawn) [Compound 1600]

inhibition: 0 to 25%
Structure (SMILES): Cc1ccc(CC(=O)Nc2cccc3c(=O)n(Cc4ccc(OC(F)(F)F)cc4)ccc23)cc1 [Compound 1585]

inhibition at 0.3 µM ('+' class symbols): 0 to 25%
Structure (SMILES): O=C(Nc1cccc2c(=O)n(CC3CCOCC3)ccc12)C1C[C@@H]2CC[C@H]1C2 (stereo partly drawn) [Compound 1122]

inhibition at 0.3 µM (symbols + to ++++): 0 to 25%
Structure (SMILES): Cn1ccc2c(NC(=O)C3C[C@@H]4CC[C@H]3C4)cccc2c1=O (stereo partly drawn) [Compound 1306]

inhibition: 0 to 25%
Structure (SMILES): O=C(Cc1csc2ccccc12)Nc1cccc2c(=O)n(Cc3cccnc3)ccc12 [Compound 1453]

inhibition at 0.3 µM ("+" class symbols): ≥ 76% | IC50: 0.0559 µM
Structure (SMILES): O=C(Cc1ccc(Cl)c(C(F)(F)F)c1)Nc1cccc2c(=O)n(Cc3ccccn3)ccc12 [Compound 1628, 2-(4-Chloro-3-trifluoromethyl-phenyl)-N-(1-oxo-2-pyridin-2-ylmethyl-1,2-dihydro-isoquinolin-5-yl)-acetamide]

inhibition at 0.3 µM (symbols + to ++++): ≥ 76% | IC50: 0.0457 µM
Structure (SMILES): CC(C(=O)Nc1cccc2c(=O)n(CCN(C)C)ccc12)c1ccc(Cl)cc1 (stereo not drawn) [Compound 1391]
